From US11964971B2, “Methods and compositions for modulating splicing” (Skyhawk Therapeutics, Inc., priority 2019, dated 2024)
Read-outs that look alike come from different tables or passages of the source.

Columns and labels:
SMN protein = SMN protein assay (MSD) in SMA patient fibroblasts (GM03813); type: cell-based, human
In short: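 Absolute SMN protein measured by Mesoscale Discovery assay in lysates, calibrated per plate with SMN standards (1–19.5 μg/ml). Cells: GM03813 SMA fibroblasts, 7000/well, 48 h compound exposure at doses of 2.5 μM down to 0.6 nM.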

[1] = tested on: MDR1-MDCK cell monolayers; test: MDCK-MDR1 permeability assay, blood-brain-barrier penetration potential
Protocol: (§1) Experimental Procedure: MDR1-MDCK cell monolayers are grown to confluence on collagen-coated, microporous membranes in 12-well assay plates. The permeability assay buffer is Hanks' balanced salt solution containing 10 mM HEPES and 15 mM glucose at a pH of 7.4. The buffer in the receiver chamber also contained 1% bovine serum albumin. The dosing solution concentration is 5 μM of test article in the assay buffer. Cell monolayers are dosed on the apical side (A-to-B) or basolateral side (B-to-A) and incubated at 37° C. with 5% CO2 in a humidified incubator. Samples are taken from the donor and receiver chambers at 120 minutes. Each determination is performed in duplicate. The flux of lucifer yellow is also measured post-experimentally for each monolayer to ensure no damage was inflicted to the cell monolayers during the flux period. All samples are assayed by LC-MS/MS using electrospray ionization.
(§2) Analytical Method: Liquid Chromatography • Column: Waters ACQUITY UPLC BEH Phenyl 30×2.1 mm, 1.7 μm • M.P. Buffer: 25 mM ammonium formate buffer, pH 3.5 • Aqueous Reservoir (A): 90% water, 10% buffer • Organic Reservoir (B): 90% acetonitrile, 10% buffer • Flow Rate: 0.7 mL/minute • Gradient Program:
(§3) • Total Run Time: 1.00 minute • Autosampler: 2 μL injection volume • Wash1: water/methanol/2-propanol:1/1/1; with 0.2% formic acid • Wash2: 0.1% formic acid in water • Brain Penetration • Potential Classification: A-B Papp≥3.0 and Efflux Ratio<3.0: High • A-B Papp≥3.0 and 10>Efflux Ratio≥3.0: Moderate • A-B Papp≥3.0 and Efflux Ratio≥10: Low • A-B Papp<3.0: Low

[2] = tested on: MDR1-MDCK cell monolayers; conditions: dog, MDCK-MDR1, 120 min, 5 μM, pH 7.4
Protocol: as §1, §2, §3

SMN FL and SMN Δ7 = test: Quantitative splicing assay (SMN) in SMA patient fibroblasts (GM03813); type: cell-based; conditions: Homo sapiens, Fibroblast; class symbol; read-out: SMN2 Splicing FL EC50 (nM)*
Protocol: Spinal muscular atrophy (SMA) patient fibroblasts (GM03813, Coriell) are plated in 96-well plates at 50,000 cells/well. […] Treated cells are lysed and cDNA synthesized using the Fast Advanced Cells-to-Ct kit (Thermofisher A35378) according to the manufacturer's instructions. 2 μL of each cDNA are used in qPCR reactions. […] Reactions are run in a Quant Studio 6 qPCR instrument with default settings.

MDR1 = test: in vitro; conditions: dog; for Papp A→B at 120 min, 5 μM: MDCK-MDR1, pH 7.4, MDCK-MDR1: Papp A-B (10^−6, cm/s); for Papp B→A at 120 min, 5 μM: MDCK-MDR1, pH 7.4, MDCK-MDR1: Papp B-A (10^−6, cm/s)
Protocol: as §1, §2, §3

MDR1 (P-gp) = test: MDCK-MDR1 permeability assay, blood-brain-barrier penetration potential; conditions: dog, MDCK-MDR1, pH 7.4, MDCK-MDR1 Efflux Ratio
Protocol: as §1, §2, §3

[3] = dog, MDCK-MDR1, 120 min, 5 μM, pH 7.4

Compound | EC50 (SMN protein) | MDCK-MDR1 Efflux Ratio [1, 3] | MDCK-MDR1: % Recov A-B (%) [2] | MDCK-MDR1: % Recov B-A (%) [2] | MDCK-MDR1: Papp A-B (10^−6, cm/s) [2] | MDCK-MDR1: Papp B-A (10^−6, cm/s) [2] | MDCK-MDR1: % Recov A-B (%) ([1]; A-B) | MDCK-MDR1: Papp A-B (10^−6, cm/s) ([1]; A-B) | MDCK-MDR1: % Recov B-A (%) ([1]; B-A) | MDCK-MDR1: Papp B-A (10^−6, cm/s) ([1]; B-A) | MDCK-MDR1 Efflux Ratio ([1]; MDCK-MDR1) | EC50 (SMN FL and SMN Δ7) | Papp A→B at 120 min, 5 μM (MDR1) | Papp B→A at 120 min, 5 μM (MDR1) | efflux ratio at 120 min, 5 μM (MDR1 (P-gp))
Cn1cc(-c2ccc(-c3cnc(N(C4CC4)[C@@H]4CC5CC[C@H](N5)[C@@H]4F)cn3)c(O)c2)cn1 (single isomer, unassigned) [Compound 49E2] | 501 to 10000 nM | 8 | 48% | 63% | 4.55 10^−6, cm/s | 34.9 10^−6, cm/s |  |  |  |  |  |  |  |  | 
2-(5-(((1S,2S,3R,5R)-2-fluoro-8-azabicyclo[3.2.1]octan-3-yl)(methyl)aniino)pyrazin-2-yl)-5-(6-methoxypyrimidin-4-yl)phenol [Compound 34E1] | 101 to 500 nM |  |  |  |  |  | 20% | 2.78 10^−6, cm/s | 60% | 8.79 10^−6, cm/s | 3 |  |  |  | 
CN(c1cnc(-c2cc(F)c(-c3cnn(C)c3)cc2O)cn1)[C@H]1C[C@@H]2CCC(N2)[C@H]1F (single isomer, unassigned) [Compound 17E2] | 0.01 to 15 nM | 4 | 24% | 52% | 4.68 10^−6, cm/s | 18 10^−6, cm/s |  |  |  |  |  | 101 to 500 nM |  |  | 
COc1cc(-c2cc(O)c(-c3cnc(N(C)[C@@H]4C[C@@]5(C)CC[C@](C)(N5)[C@@H]4F)cn3)cc2F)cnn1 (single isomer, unassigned) [Compound 64E2] | 101 to 500 nM | 11 | 69% | 78% | 4.1 10^−6, cm/s | 44.1 10^−6, cm/s |  |  |  |  |  |  |  |  | 
CN(c1cnc(-c2ccc(-c3cnn(CF)c3)cc2O)cn1)[C@@H]1CC2CC[C@H](N2)[C@@H]1F (single isomer, unassigned) [Compound 42E1] | 16 to 50 nM |  | 48% | 59% |  |  |  |  |  |  |  | 51 to 100 nM | 5.38 ×10⁻⁶ cm/s | 30.4 ×10⁻⁶ cm/s | 6
CN(c1cnc(-c2ccc(-c3ccn(C)c(=O)c3)cc2O)cn1)[C@H]1C[C@@H]2CCCC(N2)[C@H]1F (single isomer, unassigned) [Compound 83E2] | 16 to 50 nM |  | 106% | 118% |  |  |  |  |  |  |  | 101 to 500 nM | 1.28 ×10⁻⁶ cm/s | 45 ×10⁻⁶ cm/s | 36
CNC(=O)/C=C/c1cc(O)c(-c2cnc(N(C)[C@H]3C[C@@H]4CCC(N4)[C@H]3F)cn2)cc1F (single isomer, unassigned) [Compound 60E2] | 0.01 to 15 nM |  | 89% | 89% |  |  |  |  |  |  |  | 51 to 100 nM | 2.48 ×10⁻⁶ cm/s | 60.1 ×10⁻⁶ cm/s | 24
CN(C)C(=O)c1cc2cc(O)c(-c3cnc(N(C)[C@@H]4C[C@H]5CCC(N5)[C@@H]4F)cn3)cc2o1 (single isomer, unassigned) [Compound 7E1] | 501 to 10000 nM |  | 91% | 88% |  |  |  |  |  |  |  | 501 to 10000 nM | 1.78 ×10⁻⁶ cm/s | 42.4 ×10⁻⁶ cm/s | 24
COc1cc(-c2ccc(-c3cnc(N(C)[C@@H]4C[C@@]5(C)CC[C@](C)(N5)[C@@H]4F)cn3)c(O)c2)cnn1 [Compound 25E1, 2-(5-(((1S,2R,3R,5R)-2-fluoro-1,5-dimethyl-8-azabicyclo[3.2.1]octan-3-yl)(methyl)amino)pyrazin-2-yl)-5-(6-methoxypyridazin-4-yl)phenol] | 501 to 10000 nM |  | 45% | 64% |  |  |  |  |  |  |  | 501 to 10000 nM | 5.6 ×10⁻⁶ cm/s | 39.6 ×10⁻⁶ cm/s | 7
COc1cc(-c2ccc(-c3cnc(N(C)[C@@H]4CC5CC[C@H](N5)[C@@H]4F)cn3)c(O)c2)ncn1 (single isomer, unassigned) [Compound 48E1] | 16 to 50 nM |  | 21% | 44% |  |  |  |  |  |  |  | 101 to 500 nM | 4.15 ×10⁻⁶ cm/s | 6.9 ×10⁻⁶ cm/s | 2
CN(c1cnc(-c2cc(F)c(-c3cn[nH]c3)cc2O)cn1)[C@@H]1CC2CC[C@H](N2)[C@@H]1F (single isomer, unassigned) [Compound 40E1] | 16 to 50 nM |  | 54% | 75% |  |  |  |  |  |  |  | 51 to 100 nM | 6.63 ×10⁻⁶ cm/s | 39.2 ×10⁻⁶ cm/s | 6
COc1cc(-c2ccc(-c3cnc(N(C)[C@H]4C[C@@H]5CCC(N5)[C@H]4F)cn3)c(O)c2)cnn1 (single isomer, unassigned) [Compound 26E2] | 16 to 50 nM |  | 41% | 67% |  |  |  |  |  |  |  | 101 to 500 nM | 3.16 ×10⁻⁶ cm/s | 23.9 ×10⁻⁶ cm/s | 8
CN(c1cnc(-c2ccc(-c3ccn(C)c(=O)c3)cc2O)cn1)[C@@H]1C[C@H]2CCC[C@H](N2)[C@@H]1F [Compound 5E1, 4-(4-(5-(((1S,2S,3R,5R)-2-fluoro-9-azabicyclo[3.3.1]nonan-3-yl)(methyl)amino)pyrazin-2-yl)-3-hydroxyphenyl)-1-methylpyridin-2(1H)-one] | 0.01 to 15 nM |  | 84% | 90% |  |  |  |  |  |  |  | 51 to 100 nM | 2.04 ×10⁻⁶ cm/s | 50.3 ×10⁻⁶ cm/s | 25
CN(c1cnc(-c2cc(F)c(-c3ccn(C)c(=O)c3)cc2O)cn1)[C@@H]1C[C@@]2(C)CC[C@](C)(N2)[C@@H]1F [Compound 62E1, 4-(2-fluoro-4-(5-(((1S,2R,3R,5R)-2-fluoro-1,5-dimethyl-8-azabicyclo[3.2.1]octan-3-yl)(methyl)amino)pyrazin-2-yl)-5-hydroxyphenyl)-1-methylpyridin-2(1H)-one] | 501 to 10000 nM | 14 |  |  | 2.88 10^−6, cm/s | 41.5 10^−6, cm/s |  |  |  |  |  |  | 2.82 ×10⁻⁶ cm/s | 30.7 ×10⁻⁶ cm/s | 11
CN(c1cnc(-c2ccc(-c3cn[nH]c3)cc2O)cn1)[C@H]1C[C@]2(C)CCC(N2)[C@H]1F (single isomer, unassigned) [Compound 28E1] | 0.01 to 15 nM |  | 66% | 80% |  |  |  |  |  |  |  | 101 to 500 nM | 3.23 ×10⁻⁶ cm/s | 48.1 ×10⁻⁶ cm/s | 15
CN(c1cnc(-c2cc(F)c(-c3cn[nH]c3)cc2O)cn1)[C@H]1C[C@]2(C)CC[C@@](C)(N2)[C@H]1F [Compound 57E2, 4-fluoro-2-(5-(((1R,2S,3S,5S)-2-fluoro-1,5-dimethyl-8-azabicyclo[3.2.1]octan-3-yl)(methyl)amino)pyrazin-2-yl)-5-(1H-pyrazol-4-yl)phenol] | 0.01 to 15 nM |  | 35% | 64% |  |  |  |  |  |  |  | 501 to 10000 nM | 5.8 ×10⁻⁶ cm/s | 20 ×10⁻⁶ cm/s | 3
CN(c1cnc(-c2ccc(-c3cn[nH]c3)cc2O)cn1)[C@H]1C[C@@H]2CCC(N2)[C@@H]1F (single isomer, unassigned) [Compound 27E2] | 16 to 50 nM |  | 80% | 85% |  |  |  |  |  |  |  | 101 to 500 nM | 4.45 ×10⁻⁶ cm/s | 40.6 ×10⁻⁶ cm/s | 9
CN(c1cnc(-c2cc(F)c(-c3cn[nH]c3)cc2O)cn1)[C@@H]1C[C@@]2(C)CC[C@](C)(N2)[C@@H]1F [Compound 57E1, 4-fluoro-2-(5-(((1S,2R,3R,5R)-2-fluoro-1,5-dimethyl-8-azabicyclo[3.2.1]octan-3-yl)(methyl)amino)pyrazin-2-yl)-5-(1H-pyrazol-4-yl)phenol] | 16 to 50 nM |  | 37% | 59% |  |  |  |  |  |  |  | 101 to 500 nM | 5.9 ×10⁻⁶ cm/s | 18.8 ×10⁻⁶ cm/s | 3
CN(c1cnc(-c2ccc(-c3cnn(C)c3)cc2O)cn1)[C@H]1C[C@@H]2CCC(N2)[C@H]1F (single isomer, unassigned) [Compound 16E2] | 16 to 50 nM |  | 54% | 86% |  |  |  |  |  |  |  | 101 to 500 nM | 7.68 ×10⁻⁶ cm/s | 28.4 ×10⁻⁶ cm/s | 4
CN(c1cnc(-c2ccc(C3=CC(=O)NC3)cc2O)cn1)[C@H]1C[C@@H]2CCC(N2)[C@H]1F (single isomer, unassigned) [Compound 78E2] | 16 to 50 nM |  | 94% | 82% |  |  |  |  |  |  |  | 501 to 10000 nM | 0.56 ×10⁻⁶ cm/s | 30.7 ×10⁻⁶ cm/s | 55
